Laboratory results reported in the supplement of paper PMC10307832.

compound: COc1cc(Nc2ncc(F)c(Nc3ccc4c(n3)NC(=O)C(C)(C)O4)n2)cc(OC)c1OC [R406] + C[C@]1(O)C[C@@H](c2nc(-c3ccc4ccc(-c5ccccc5)nc4c3)c3c(N)nccn32)C1 [Linsitinib] (partner 1 µM); assay: relative viability (nuclei count vs DMSO), 5 days (fraction); higher = more cells survive; conditions: first compound 8 µM
Procedure, shortened: (§1)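 Relative viability equals treated-well nuclei counts divided by vehicle-well nuclei counts. Counts came from 4× images of lung cancer cell lines grown in 1536-well plates for 5 days after pin-tool dosing on the day after seeding. Dosing used one drug alone or a fixed anchor-drug dose plus five library-drug doses (not always all listed) in √10 steps, and values are medians of duplicate plates.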

First: EPLC-272H
Second: NCI-H2228
The relative viability of the first is higher: 0.564 for the first, 0.154 for the second.

Compared with NCI-H1792, NCI-H1355 is higher in relative viability: 0.505 for the first, 0.596 for the second.

Compared with NCI-H3122, NCI-H1437 is lower in relative viability: 0.98 for the first, 0.49 for the second.

First: NCI-H1755
Second: NCI-H2023
The relative viability of the first is higher: 0.688 for the first, 0.55 for the second.

compound: COc1cc(Nc2ncc(F)c(Nc3ccc4c(n3)NC(=O)C(C)(C)O4)n2)cc(OC)c1OC [R406] + C[C@@H](Oc1cc(-c2cnn(C3CCNCC3)c2)cnc1N)c1c(Cl)ccc(F)c1Cl [Crizotinib] (partner 1 µM); assay: as above; conditions: first compound 0.08 µM
Procedure, shortened: as §1

Compared with HARA, HCC-78 is lower in relative viability: 0.902 for the first, 0.356 for the second.

Compared with NCI-H322M, LCLC-97TM1 is lower in relative viability: 0.811 for the first, 0.418 for the second.

First: NCI-H2009
Second: A-427
The relative viability of the first is higher: 1.07 for the first, 1 for the second.

Going from NCI-H460 to NCI-H727, the relative viability rises from 0.829 to 0.866.

First: NCI-H1734
Second: NCI-H520
The relative viability of the first is lower: 0.707 for the first, 0.735 for the second.

Compared with NCI-H2347, SW 1573 is higher in relative viability: 0.588 for the first, 0.747 for the second.

Going from 201T to NCI-H1915, the relative viability falls from 0.994 to 0.898.

First: HCC-827
Second: LXF-289
The relative viability of the first is higher: 0.975 for the first, 0.739 for the second.

Going from NCI-H23 to NCI-H650, the relative viability rises from 0.458 to 0.809.

Compared with CAL-12T, NCI-H1651 is higher in relative viability: 0.693 for the first, 0.869 for the second.

Compared with EPLC-272H, NCI-H2228 is lower in relative viability: 0.798 for the first, 0.572 for the second.

Going from NCI-H1792 to NCI-H1355, the relative viability rises from 0.842 to 1.09.

Compared with NCI-H3122, NCI-H1437 is higher in relative viability: 0.286 for the first, 0.944 for the second.

First: NCI-H1755
Second: NCI-H2023
The relative viability of the first is higher: 0.81 for the first, 0.705 for the second.

same assay, conditions: first compound 0.253 µM

Going from HARA to HCC-78, the relative viability falls from 1.06 to 0.318.

Going from NCI-H322M to LCLC-97TM1, the relative viability falls from 1.06 to 0.443.

First: NCI-H2009
Second: A-427
The relative viability of the first is lower: 1.02 for the first, 1.14 for the second.

Compared with NCI-H460, NCI-H727 is lower in relative viability: 1.09 for the first, 0.852 for the second.

Compared with NCI-H1734, NCI-H520 is higher in relative viability: 0.814 for the first, 1.09 for the second.

Compared with NCI-H2347, SW 1573 is higher in relative viability: 0.538 for the first, 1 for the second.

Going from 201T to NCI-H1915, the relative viability falls from 1.06 to 0.975.

First: HCC-827
Second: LXF-289
The relative viability of the first is higher: 0.952 for the first, 0.918 for the second.

Going from NCI-H23 to NCI-H650, the relative viability rises from 0.607 to 0.848.

Going from CAL-12T to NCI-H1651, the relative viability rises from 0.746 to 0.914.

Going from EPLC-272H to NCI-H2228, the relative viability falls from 1.07 to 0.435.

Compared with NCI-H1792, NCI-H1355 is higher in relative viability: 1.03 for the first, 1.14 for the second.

First: NCI-H3122
Second: NCI-H1437
The relative viability of the first is lower: 0.257 for the first, 1.13 for the second.

First: NCI-H1755
Second: NCI-H2023
The relative viability of the first is higher: 0.954 for the first, 0.855 for the second.

same assay, conditions: first compound 0.8 µM

First: HARA
Second: HCC-78
The relative viability of the first is higher: 1.13 for the first, 0.398 for the second.

First: NCI-H322M
Second: LCLC-97TM1
The relative viability of the first is higher: 0.978 for the first, 0.38 for the second.

Compared with NCI-H2009, A-427 is lower in relative viability: 1.13 for the first, 0.914 for the second.

First: NCI-H460
Second: NCI-H727
The relative viability of the first is higher: 1.16 for the first, 0.898 for the second.

First: NCI-H1734
Second: NCI-H520
The relative viability of the first is lower: 0.654 for the first, 0.875 for the second.

Compared with NCI-H2347, SW 1573 is lower in relative viability: 0.889 for the first, 0.769 for the second.

Going from 201T to NCI-H1915, the relative viability falls from 1.03 to 0.959.

First: HCC-827
Second: LXF-289
The relative viability of the first is higher: 0.899 for the first, 0.833 for the second.

First: NCI-H23
Second: NCI-H650
The relative viability of the first is lower: 0.571 for the first, 0.713 for the second.

Going from CAL-12T to NCI-H1651, the relative viability rises from 0.731 to 0.853.

Going from EPLC-272H to NCI-H2228, the relative viability falls from 1.09 to 0.528.

Going from NCI-H1792 to NCI-H1355, the relative viability rises from 1.03 to 1.25.

Going from NCI-H3122 to NCI-H1437, the relative viability rises from 0.247 to 0.971.

Compared with NCI-H1755, NCI-H2023 is lower in relative viability: 0.861 for the first, 0.681 for the second.

same assay, conditions: first compound 2.53 µM

Compared with HARA, HCC-78 is lower in relative viability: 1.09 for the first, 0.302 for the second.

Going from NCI-H322M to LCLC-97TM1, the relative viability falls from 0.611 to 0.29.

Going from NCI-H2009 to A-427, the relative viability falls from 0.815 to 0.629.

Compared with NCI-H727, NCI-H1734 is lower in relative viability: 0.714 for the first, 0.542 for the second.

Compared with NCI-H520, NCI-H2347 is lower in relative viability: 0.58 for the first, 0.556 for the second.

Compared with SW 1573, 201T is higher in relative viability: 0.653 for the first, 1.05 for the second.

Compared with NCI-H1915, HCC-827 is higher in relative viability: 0.782 for the first, 0.841 for the second.

Going from LXF-289 to NCI-H23, the relative viability falls from 0.832 to 0.439.

First: NCI-H650
Second: CAL-12T
The relative viability of the first is higher: 0.59 for the first, 0.503 for the second.

First: NCI-H1651
Second: EPLC-272H
The relative viability of the first is higher: 0.815 for the first, 0.533 for the second.

First: NCI-H2228
Second: NCI-H1792
The relative viability of the first is lower: 0.164 for the first, 0.925 for the second.

Compared with NCI-H1355, NCI-H3122 is lower in relative viability: 0.909 for the first, 0.25 for the second.

Going from NCI-H1437 to NCI-H1755, the relative viability falls from 0.864 to 0.641.

NCI-H2023 gave a relative viability of 0.254.

same assay, conditions: first compound 8 µM

Compared with HARA, HCC-78 is lower in relative viability: 0.376 for the first, 0.269 for the second.

Going from NCI-H322M to LCLC-97TM1, the relative viability falls from 0.438 to 0.244.

First: NCI-H2009
Second: A-427
The relative viability of the first is higher: 0.301 for the first, 0.273 for the second.

First: NCI-H460
Second: NCI-H727
The relative viability of the first is higher: 0.441 for the first, 0.301 for the second.

Going from NCI-H1734 to NCI-H520, the relative viability falls from 0.292 to 0.269.

Going from NCI-H2347 to SW 1573, the relative viability rises from 0.487 to 0.579.

Cell Line 201T has a relative viability of 0.974.
